One data set has as its system white blood cells. The following applies: mice; for White blood cells per 10^4 peripheral blood cells: after 28 days. The protocol:
(§1) A group of 6 mice are administered various dosages of the cobalamin-paclitaxel bioconjugate prepared in accordance with Example 1 over a 28-day period. The effects on counts of viable circulating endothelial cell precursors and white blood cells are measured after 28 days.

Data set [1] concerns viable circulating endothelial cell precursors (CEPs). The settings on record: mice; for Viable CEPs per microliter of peripheral blood: after 28 days. The protocol: as §1
Data set [2] relates to bFGF-stimulated formation of new blood vessel in the Matrigel plug. In words: Matrigel plug perfusion in vivo assay. The following applies: mice, Matrigel and bFGF; for Matrigel Plug/Plasma Fluorescence Ratio: oral gavage. The protocol:
A Matrigel® plug perfusion in vivo assay is performed to determine the anti-angiogenic efficiacy of the cobalamin-paclitaxel bioconjugate (Cob-Pac) of Example 1. The assay uses Matrigel®, a gelatinous protein mixture secreted by mouse tumor cells (BD Biosciences, San Jose, Calif.), to duplicate tissue environments. Matrigel® is liquid at […], but when injected into the animal, forms a solid plug. If a growth vessel stimulant such as basic fibroblast growth factor (bFGF) is mixed with the Matrigel®, the bFGF stimulates the formation of new blood vessel in the plug, which can be monitored in the animal via fluorescence techniques. In the current study, Matrigel® is injected either alone or with bFGF subcutaneously into mice.

Data set [3] relates to blood vessel lesions of the eye. The following applies: rats. From the text:
In another study, flat mount evaluation of the eyes can be carried out at the end of the study because angiography may not provide a full evaluation of the effect of the drug. At the end of the study, the eyes are removed, histologically processed and all lesions can be seen (including those that can not be detected by angiography).
Groups of 8 rats/dosage group are neovascularized by laser burns, followed by immediate treatment of the eye with a cobalamin-paclitaxel bioconjugate prepared in accordance with Example 1. Dosages used are 1.5 μg/2 μL, 5.0 μg/2 μL, and 15 μg/2 μL. The treatments also include a vehicle and Kenacort Retard® (4% triamcinolone acetonide). After 21 days, the eyes are removed, histologically processed, and the lesion size scored in μm^3.

The conditions of data set [4]: paclitaxel conjugated to cobalt atom of cobalamin.
Data set [5] deals with choroidal neovascularization by laser burns on the eye. The following applies: rats. The protocol:
Groups of 8 rats/dosage group or vehicle are neovascularized by laser burns on the eye. Afterwards, the eye is immediately treated with a cobalamin-paclitaxel bioconjugate prepared in accordance with Example 1 at a dose of 1.5 μg/2 μL, 5.0 μg/2 μL, and 15 μg/2 μL (indicated as B.C. in FIG. 1). The treatment regimen also includes a vehicle and Kenacort Retard® (4% triamcinolone acetonide), as a positive control. Each treatment is scored at 7, 14, and 21 days post-treatment by infusing the eye with fluorescein and scoring the leakage using angiography. A score of 0 indicates no leakage while a score of 3 indicates severe leakage. The results of the test are shown in FIG. 1 as the percentage of […] scoring 3.

Where [6] appears, read: 1.5 mg/kg paclitaxel delivered as bioconjugate.
[7] abbreviates: 2 mg/kg paclitaxel delivered as bioconjugate.
The mark [8] stands for this setting: 3 mg/kg paclitaxel delivered as bioconjugate.
[9] abbreviates: 6 mg/kg paclitaxel delivered as bioconjugate.
[10] abbreviates: 30 mg/kg paclitaxel delivered as bioconjugate.

Like-named read-outs stand apart in the source and are kept apart here.

The values that follow come from patent US20100016256A1, “Taxane Compounds for Treating Eye Disease” (priority 2008, published 2010).

Consider `CC(=O)O[C@H]1C(=O)[C@@]2(C)C([C@H](OC(=O)c3ccccc3)[C@]3(O)C[C@H](OC(=O)[C@H](OC(=O)C[NH+](C)CC[CH2][Co+][N]4/C5=C(/C)C6=N/C(=C\C7=NC(=C(/C)C8=NC(C(C)C4C(CC(N)=O)C5(C)CCC(=O)NCC(C)OP(=O)([O-])OC4C(CO)OC(n5cnc9cc(C)c(C)cc95)C4O)C(C)(CC(N)=O)C8CCC(N)=O)/C(C)(CC(N)=O)C7CCC(N)=O)C(C)(C)C6CCC(N)=O)[C@@H](NC(=O)c4ccccc4)c4ccccc4)C(C)=C1C3(C)C)[C@]1(OC(C)=O)COC1C[C@@H]2O.[Cl-]` (stereo partly drawn) [cobalamin-paclitaxel bioconjugate, Cbl-(CH2)3N(CH3)CH2COO-2′-P7X], for which the “White blood cells per 10^4 peripheral blood cells” value in the data set on white blood cells (setting [6]) was 6700 per 10^4 peripheral blood cells; with white blood cells (setting [7]), 6700 per 10^4 peripheral blood cells; in the data set on white blood cells (setting [8]) it was 7000 per 10^4 peripheral blood cells; with white blood cells (setting [9]), 6700 per 10^4 peripheral blood cells; in the data set with white blood cells (setting [10]) it was 8100 per 10^4 peripheral blood cells. Besides, the “Toxicity by white blood cell count (neutropenia)” value with white blood cells (28 days, absence of a decrease in white blood cell count) was “no neutropenia”. Further, the “Viable CEPs per microliter of peripheral blood” value in data set [1] (setting [6]) is 0.4 per microliter of peripheral blood; in data set [1] (setting [7]) it was 0.25 per microliter of peripheral blood; in data set [1] (setting [8]), 0.4 per microliter of peripheral blood; in data set [1] (setting [9]), 0.9 per microliter of peripheral blood; in data set [1] (setting [10]), 1.2 per microliter of peripheral blood. The “Most effective dose (decrease in viable CEPs)” value in data set [1] (28-day dose study, dose as paclitaxel) was “about 2 mg/kg”. Moreover, in data set [2] (each dose (2, 6, 30 mg/kg), greatest effect at 2 and 6 mg/kg), the “Effect on growth of new blood vessels in Matrigel plug” value is reported as “inhibits the growth of new blood vessels”. Further, the “Matrigel Plug/Plasma Fluorescence Ratio” value in data set [2] (2 mg/kg expressed in paclitaxel units) is given as 0.0007; in data set [2] (6 mg/kg expressed in paclitaxel units), 0.0005; in data set [2] (30 mg/kg expressed in paclitaxel units) it was 0.0011. The “Number of blood vessel lesions (FIG. 2)” value in data set [3] (21 days, 1.5, 5.0 and 15 μg/2 μL) is “decrease in a concentration dependent manner”. For the same molecule, the “Inhibition of new blood vessel growth (lesion study)” value in data set [3] (21 days, high and medium concentrations (15 and 5.0 μg/2 μL)) was “efficacious in inhibiting new blood vessel growth”. Further, in data set [4], the water solubility entry is reported as “over 100 mg/ml”. Moreover, the “Anti-angiogenic effect by fluorescein leakage score (FIG. 1)” value in data set [5] (after 7 days, intermediate and high doses (5.0 and 15 μg/2 μL)) is reported as “anti-angiogenic results”; in data set [5] (after 14 days, high dose (15 μg/2 μL)), “anti-angiogenic benefit”.
